Experimental findings from ChEMBL document CHEMBL5046246, “Dimeric Tetracenomycin Derivatives from a Taklamakan Desert-Derived Streptomyces sp. HDN154193” (2022) are described below.

What all share (assay type): functional
The subject of assay [1] is Staphylococcus aureus. The assay is described as follows: Antibacterial activity against methicillin-resistant Staphylococcus aureus assessed as reduction in bacterial growth by double dilution method.
The subject of assay [2] is Mycolicibacterium phlei. As to the kind of experiment: Antibacterial activity against Mycobacterium phlei assessed as reduction in bacterial growth by double dilution method.
In assay [3] the test system is Bacillus subtilis. As to the kind of experiment: Antibacterial activity against Bacillus subtilis assessed as reduction in bacterial growth by double dilution method.
In assay [4] the test system is Proteus sp. As to the kind of experiment: Antibacterial activity against Proteus species assessed as reduction in bacterial growth by double dilution method. As to conditions: Proteus sp. (in: enterobacteria).
Assay [5] relates to Staphylococcus. As to the kind of experiment: Antibacterial activity against methicillin-resistant coagulase-negative Staphylococcus assessed as reduction in bacterial growth by double dilution method.

The term MIC denotes the least concentration at which growth counts as inhibited.

Values after ≈ are worked out from the molar mass of the structure shown.

`Cc1cc(O)cc2cc3c(c(O)c12)C(=O)c1c(O)cc(O)cc1[C@H]3[C@H]1c2cc(O)cc(O)c2C(=O)c2c1cc1cc(O)cc(C)c1c2O`: the minimal inhibitory concentration (MIC) in assay [1] was 1.9 µg/mL (≈ 2.96 µM); in assay [2] it was 1.9 µg/mL (≈ 2.96 µM); in assay [3], 3.9 µg/mL (≈ 6.07 µM); in assay [4] it was 3.9 µg/mL (≈ 6.07 µM); in assay [5], 1.9 µg/mL (≈ 2.96 µM).

`Cc1cc(O)cc2cc3c(c(O)c12)C(=O)c1c(O)cc(O)cc1[C@@H]3[C@H]1c2cc(O)cc(O)c2C(=O)c2c1cc1cc(O)cc(C)c1c2O`: the MIC in assay [1] was found to be 1.9 µg/mL (≈ 2.96 µM); in assay [2], 1.9 µg/mL (≈ 2.96 µM); in assay [3] it was 3.9 µg/mL (≈ 6.07 µM); in assay [4], 3.9 µg/mL (≈ 6.07 µM); in assay [5], 1.9 µg/mL (≈ 2.96 µM).

With `Cc1cc(O)cc2cc3c(c(O)c12)C(=O)c1c(O)cc(O)cc1[C@H]3[C@@H]1c2cc(O)cc(O)c2C(=O)c2c1cc1cc(O)cc(C)c1c2O`, the minimum inhibitory concentration (MIC) in assay [1], in assay [2], in assay [3], in assay [4] and in assay [5] was 1.9 µg/mL (≈ 2.96 µM) each time.

Turning to `Cc1cc(O)cc2cc3c(c(O)c12)C(=O)c1c(O)cc(O)cc1C3C1c2cc(O)cc(O)c2C(=O)c2c1cc1cc(O)cc(C)c1c2O` (racemic), the MIC in assay [1] worked out at 1 µg/mL (≈ 1.56 µM); in assay [2] it was 1 µg/mL (≈ 1.56 µM); in assay [3], 3.9 µg/mL (≈ 6.07 µM); in assay [4], 1.9 µg/mL (≈ 2.96 µM); in assay [5], 1.9 µg/mL (≈ 2.96 µM).

For `O=C(O)c1cn(C2CC2)c2cc(N3CCNCC3)c(F)cc2c1=O` [CIPROFLOXACIN], the MIC in assay [1] is 128 µg/mL (≈ 388 µM); in assay [2], 0.1 µg/mL (≈ 0.302 µM); in assay [3] it was less than 0.1 µg/mL; in assay [4], less than 0.1 µg/mL; in assay [5], 32.1 µg/mL (≈ 96.9 µM).

Consider `Cc1cc(O)cc2cc3c(c(O)c12)C(=O)c1c(O)cc(O)cc1C3=O` [TETRACENOMYCIN D], for which the MIC stood at 16 µg/mL (≈ 47.6 µM) in assay [1]; 7.7 µg/mL (≈ 22.9 µM) in assay [2]; 16 µg/mL (≈ 47.6 µM) in assay [3]; 16 µg/mL (≈ 47.6 µM) in assay [4]; 7.7 µg/mL (≈ 22.9 µM) in assay [5].
